Reference: patent US20190091187A1 (Orbus Therapeutics, Inc., priority 2016, published 2019)
Where two headings read alike, the source gives them in different places.

What was measured:
[1] = test system: newly diagnosed AG and GBM patients; experiment: Phase 3 study of eflornithine with PCV versus PCV, adverse events; assay type: in vivo, human; settings: Eflornithine-PCV minus PCV, N = 500
Text: As used herein, the term “toxicity” refers to any one of the side effects referred to above in Table 2, regardless of the severity of the side effect or its possible effect on the course of treatment.

[2] = test system: biopsied skin actinic keratosis; settings: topical, compared to placebo-treated skin, cited from earlier work
neuroblastoma cells = settings: arrest of cell division between G1 and mitosis; cited from earlier work
[3] = test system: AG and GBM patients treated at recurrence; settings: 3.6 g/m^2 every 8 hours, N = 89, cited from earlier work
low-grade gliomas = settings: adjuvant chemotherapy; recurrent tumors; driver mutations in RB and AKT-mTOR pathways; cited from earlier work
Big Blue Rat-2 cells = settings: 9.1 at 0 mM, cited from earlier work

## eflornithine
[1]; Toxicity Grade 1
  Anemia, Excess AEs due to Eflornithine: 12.5%
  Anorexia, Excess AEs due to Eflornithine: −1.5%
  Constipation, Excess AEs due to Eflornithine: −1.9%
  Diarrhea, Excess AEs due to Eflornithine: 25.4%
  Fatigue, Excess AEs due to Eflornithine: 4.7%
  Granulocytopenia, Excess AEs due to Eflornithine: 2.4%
  Headache, Excess AEs due to Eflornithine: −1.9%
  Hearing loss, Excess AEs due to Eflornithine: 0.0%
  Leukopenia, Excess AEs due to Eflornithine: −3.4%
  Nausea only, Excess AEs due to Eflornithine: 1.0%
  Pruritis and itching, Excess AEs due to Eflornithine: −0.7%
  Thrombocytopenia, Excess AEs due to Eflornithine: 4.6%
  Vomiting, Excess AEs due to Eflornithine: 5.2%
[1]; Toxicity Grade 2
  Anemia, Excess AEs due to Eflornithine: 15.6%
  Anorexia, Excess AEs due to Eflornithine: 2.5%
  Constipation, Excess AEs due to Eflornithine: −0.7%
  Diarrhea, Excess AEs due to Eflornithine: 17.4%
  Fatigue, Excess AEs due to Eflornithine: 6.9%
  Granulocytopenia, Excess AEs due to Eflornithine: 1.1%
  Headache, Excess AEs due to Eflornithine: 1.3%
  Hearing loss, Excess AEs due to Eflornithine: 1.2%
  Leukopenia, Excess AEs due to Eflornithine: 1.2%
  Nausea only, Excess AEs due to Eflornithine: 0.0%
  Pruritis and itching, Excess AEs due to Eflornithine: 0.9%
  Thrombocytopenia, Excess AEs due to Eflornithine: 10.5%
  Vomiting, Excess AEs due to Eflornithine: 1.1%
[1]; Toxicity Grade 3
  Anemia, Excess AEs due to Eflornithine: 4.5%
  Anorexia, Excess AEs due to Eflornithine: 1.2%
  Constipation, Excess AEs due to Eflornithine: 0.4%
  Diarrhea, Excess AEs due to Eflornithine: 6.0%
  Fatigue, Excess AEs due to Eflornithine: 0.8%
  Granulocytopenia, Excess AEs due to Eflornithine: −3.9%
  Headache, Excess AEs due to Eflornithine: 0.4%
  Hearing loss, Excess AEs due to Eflornithine: 0.8%
  Leukopenia, Excess AEs due to Eflornithine: 0.0%
  Nausea only, Excess AEs due to Eflornithine: 0.9%
  Pruritis and itching, Excess AEs due to Eflornithine: −0.3%
  Thrombocytopenia, Excess AEs due to Eflornithine: 3.5%
  Vomiting, Excess AEs due to Eflornithine: 4.5%
[1]; Toxicity Grade 4
  Anemia, Excess AEs due to Eflornithine: 2.0%
  Anorexia, Excess AEs due to Eflornithine: 0.0%
  Constipation, Excess AEs due to Eflornithine: 0.4%
  Diarrhea, Excess AEs due to Eflornithine: 0.8%
  Fatigue, Excess AEs due to Eflornithine: 0.0%
  Granulocytopenia, Excess AEs due to Eflornithine: 1.8%
  Headache, Excess AEs due to Eflornithine: 0.0%
  Hearing loss, Excess AEs due to Eflornithine: 0.0%
  Leukopenia, Excess AEs due to Eflornithine: 0.9%
  Nausea only, Excess AEs due to Eflornithine: 0.0%
  Pruritis and itching, Excess AEs due to Eflornithine: 0.0%
  Thrombocytopenia, Excess AEs due to Eflornithine: 2.1%
  Vomiting, Excess AEs due to Eflornithine: −1.2%
[2]; P=0.04
  reduced the percentage of p53-positive cells: 22%
[2]
  reduction of the frequency of p53 mutations: not the frequency of p53 mutations
Neuroblastoma cells
  effect on intracellular proteins p21 and p27kip-1: increase
[3]; Toxicity Grade 1
  Ototoxicity, patients (%): (7.9) %
  Ototoxicity, patients n: 7
[3]; Toxicity Grade 2
  Ototoxicity, patients (%): (5.6) %
  Ototoxicity, patients n: 5
[3]; Toxicity Grade 3
  Ototoxicity, patients (%): (6.7) %
  Ototoxicity, patients n: 6

## Cn1nnc2c(C(N)=O)ncn2c1=O [TMZ, temozolomide]
low-grade gliomas
  patients whose tumors followed an alternative evolutionary path to high-grade glioma with hypermutation: 6 of 10
Big Blue Rat-2 cells; 0.5 mM TMZ
  lacI mutation frequency: 48.9
Big Blue Rat-2 cells; 1 mM TMZ
  lacI mutation frequency: 89.7
